Data taken from ChEMBL document CHEMBL1132946 (J Med Chem, 2000).

Experiments:
Adenosine receptor A1 [1] = molecular target: T1, Adenosine receptor A1 (Bos taurus, UniProt P28190); assay: biochemical
T1 sequence (P28190 whole entry): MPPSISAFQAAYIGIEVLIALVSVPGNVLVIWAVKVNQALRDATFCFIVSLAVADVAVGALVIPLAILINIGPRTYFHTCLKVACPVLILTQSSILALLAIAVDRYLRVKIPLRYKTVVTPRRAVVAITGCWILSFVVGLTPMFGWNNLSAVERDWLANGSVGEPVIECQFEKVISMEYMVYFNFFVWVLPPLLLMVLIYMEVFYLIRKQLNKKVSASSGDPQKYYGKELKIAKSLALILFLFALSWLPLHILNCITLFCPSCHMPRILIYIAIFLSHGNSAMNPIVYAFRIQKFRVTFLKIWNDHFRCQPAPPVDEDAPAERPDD

Adenosine receptor A3 = molecular target: T2, Adenosine receptor A3 (Rattus norvegicus, UniProt P28647); assay: Ability to displace the specific binding of [3H](R)-PIA to adenosine A3 receptor from rat testis membranes; format: cell membranes, Membrane
T2 sequence (P28647 whole entry): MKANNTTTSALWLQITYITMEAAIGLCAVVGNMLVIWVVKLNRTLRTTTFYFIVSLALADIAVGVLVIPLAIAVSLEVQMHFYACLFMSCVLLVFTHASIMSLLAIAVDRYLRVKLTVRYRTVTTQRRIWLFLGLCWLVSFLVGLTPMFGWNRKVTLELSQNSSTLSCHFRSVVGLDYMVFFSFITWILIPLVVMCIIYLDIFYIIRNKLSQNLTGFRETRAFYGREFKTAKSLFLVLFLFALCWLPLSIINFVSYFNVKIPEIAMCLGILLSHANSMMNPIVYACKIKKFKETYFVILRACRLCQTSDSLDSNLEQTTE

[2] = molecular target: Adenosine receptor A2a (Bos taurus); assay: biochemical
Bos taurus [3] = species on record: Bos taurus; assay: Selectivity, ratio of affinity towards adenosine A3 to A2A
Bos taurus [4] = species on record: Bos taurus; assay: Selectivity, ratio of affinity towards adenosine A2A to A1
[5] = Selectivity, ratio of affinity towards adenosine A3 to A1
Adenosine receptor A1 [6] = molecular target: T1, Adenosine receptor A1; assay: Displacement of [3H]CHA from A1 Adenosine receptor of Bovine brain cortical membranes

SMILES	Ki (Adenosine receptor A1 [1])	Ki (Adenosine receptor A3)	Ki [2]	Selectivity (Bos taurus [3])	Selectivity (Bos taurus [4])	Selectivity [5]	Ki (Adenosine receptor A1 [6])
Cc1ccc2c(O)cc(-c3ccc([N+](=O)[O-])cc3)nc2n1	9.9 nM	> 10 µM	–	–	–	–	–
Cc1ccc2c(Oc3ccccc3)cc(-c3ccccc3)nc2n1	–	> 10 µM	–	–	–	–	–
Cc1ccc2c(N3CCNCC3)cc(-c3ccccc3)nc2n1	8700 nM	> 10 µM	–	–	–	–	–
OC[C@H]1O[C@@H](n2cnc3c(NC4CCCCC4)ncnc32)[C@H](O)[C@@H]1O	1.3 nM	0.025 µM	–	–	–	–	–
CCn1c(-c2ccccc2)cc(=O)c2ccc(C)nc21	450 nM	> 10 µM	–	–	–	–	–
Cc1ccc2c(N(C)C)cc(-c3ccccc3)nc2n1	550 nM	> 10 µM	–	–	–	–	–
COc1cc(-c2ccccc2)nc2c1ccc(=O)n2C	1300 nM	> 10 µM	–	–	–	–	–
Oc1cc(-c2ccccc2)nc2nc(F)ccc12	4.1 nM	> 10 µM	170 nM	> 59	41	> 2440	–
CCOc1ccc2c(O)cc(-c3ccccc3)nc2n1	5.2 nM	> 10 µM	> 10000 nM	–	> 1920	> 1920	–
Cc1ccc2c(NN)cc(-c3ccccc3)nc2n1	100 nM	> 10 µM	–	–	–	–	–
COc1cc(-c2ccccc2)nc2nc(C)ccc12	6000 nM	> 10 µM	–	–	–	–	–
Cc1ccc2c(N)cc(-c3ccccc3)nc2n1	17 nM	> 10 µM	–	–	–	–	–
Cc1ccc2c(NC3CCCCC3)cc(-c3ccccc3)nc2n1	28 nM	> 10 µM	–	–	–	–	–
Cc1ccc2ccc(-c3ccccc3)nc2n1	6900 nM	> 10 µM	–	–	–	–	–
Oc1cc(-c2ccccc2)nc2nc(Oc3ccccc3)ccc12	26 nM	> 10 µM	–	–	–	–	–
Cn1c(=O)ccc2c(O)cc(-c3ccccc3)nc21	4900 nM	> 10 µM	–	–	–	–	–
Cc1ccc2c(Cl)cc(-c3ccccc3)nc2n1	–	> 10 µM	> 10000 nM	–	> 10	> 10	1000 nM

Now from value to compound:

Ki (Adenosine receptor A1 [1])	Ki (Adenosine receptor A3)	Ki [2]	Selectivity (Bos taurus [3])	Selectivity (Bos taurus [4])	Selectivity [5]	Ki (Adenosine receptor A1 [6])	SMILES
5.3 nM	> 10 µM	–	–	–	–	–	Nc1ccc2c(O)cc(-c3ccccc3)nc2n1
0.15 nM	2.1 µM	–	–	–	–	–	Oc1cc(-c2ccccc2)nc2nc(Cl)ccc12
1.6 nM	> 10 µM	–	–	–	–	–	COc1ccc2c(O)cc(-c3ccccc3)nc2n1
80 nM	> 10 µM	–	–	–	–	–	Cc1ccc2c(S)cc(-c3ccccc3)nc2n1
5.3 nM	6.1 µM	–	–	–	–	–	Cc1ccc2c(O)cc(-c3ccc(F)cc3)nc2n1
1.3 nM	0.418 µM	–	–	–	–	–	CCCn1c(=O)c2[nH]c(-c3ccc(OCC(=O)NCCN)cc3)nc2n(CCC)c1=O [XANTHINE AMINE CONGENER]
1200 nM	> 10 µM	–	–	–	–	–	CCOC(=O)N1CCN(c2cc(-c3ccccc3)nc3nc(C)ccc23)CC1
> 10000 nM	> 10 µM	> 10000 nM	–	–	–	–	Cc1ccc2c(N=[N+]=[N-])cc(-c3ccccc3)nc2n1
> 10000 nM	> 10 µM	–	–	–	–	–	O=c1ccc2c(O)cc(-c3ccccc3)nc2[nH]1
5.3 nM	8.8 µM	460 nM	19	87	1660	–	Cc1ccc2c(O)cc(-c3ccccc3)nc2n1
11 nM	4.6 µM	470 nM	10	43	418	–	Cc1ccc2c(O)cc(-c3ccccc3F)nc2n1
16 nM	3 µM	–	–	–	–	–	Oc1cc(-c2ccccc2)nc2ncccc12
0.7 nM	2.1 µM	–	–	–	–	–	Oc1cc(-c2ccccc2)nc2nc(Br)ccc12
